The NIST ThermoML archive (doi:10.1016/j.jct.2015.12.017)
“And” between values parts separate entries of the source, which are not always exact repeats. Equal values may be shown once.

Assay: molar heat capacity at constant pressure
Details: 101.33 kPa, Small sample (50 mg) DSC

O=P([O-])([O-])[O-].[Co+2].[Cs+] [cesium cobalt(II) phosphate]
Details | molar heat capacity at constant pressure
451.9 K, Crystal 3 | 167.95 J/K/mol
454.4 K, Crystal 3 | 167.95 J/K/mol
456.9 K, Crystal 3 | 168.78 J/K/mol
459.4 K, Crystal 3 | 169.62 J/K/mol
460 K, Crystal 3 | 169.45 J/K/mol
461.9 K, Crystal 3 | 170.45 J/K/mol
464.4 K, Crystal 3 | 170.45 J/K/mol
466.9 K, Crystal 3 | 171.28 J/K/mol
469.4 K, Crystal 3 | 172.11 J/K/mol
470 K, Crystal 3 | 172.44 J/K/mol
471.9 K, Crystal 3 | 172.94 J/K/mol
474.4 K, Crystal 3 | 173.77 J/K/mol
476.9 K, Crystal 3 | 174.6 J/K/mol
479.4 K, Crystal 3 | 176.27 J/K/mol
480 K, Crystal 3 | 175.02 J/K/mol
481.9 K, Crystal 3 | 182.92 J/K/mol
484.4 K, Crystal 3 | 205.37 J/K/mol
486.9 K, Crystal 2 | 241.12 J/K/mol and 177.1 J/K/mol
486.9 K, Crystal 3 | 177.1 J/K/mol and 241.12 J/K/mol
489.8 K, Crystal 2 | 196.22 J/K/mol
490 K, Crystal 2 | 176.68 J/K/mol
491.9 K, Crystal 2 | 182.09 J/K/mol
494.4 K, Crystal 2 | 177.93 J/K/mol
496.9 K, Crystal 2 | 177.1 J/K/mol
499.4 K, Crystal 2 | 177.93 J/K/mol
500 K, Crystal 2 | 177.51 J/K/mol
501.9 K, Crystal 2 | 178.76 J/K/mol
504.4 K, Crystal 2 | 181.26 J/K/mol
506.9 K, Crystal 2 | 185.41 J/K/mol
509.4 K, Crystal 2 | 192.06 J/K/mol
510 K, Crystal 2 | 177.51 J/K/mol
511.6 K, Crystal 2 | 215.34 J/K/mol
514.4 K, Crystal 1 | 253.59 J/K/mol and 177.02 J/K/mol
514.4 K, Crystal 2 | 253.59 J/K/mol and 177.76 J/K/mol
517.3 K, Crystal 1 | 198.72 J/K/mol
518.6 K, Crystal 1 | 188.74 J/K/mol
520 K, Crystal 1 | 177.02 J/K/mol
520.2 K, Crystal 1 | 184.58 J/K/mol
523.1 K, Crystal 1 | 181.26 J/K/mol
526.9 K, Crystal 1 | 178.76 J/K/mol
529.4 K, Crystal 1 | 177.93 J/K/mol
530 K, Crystal 1 | 177.02 J/K/mol
531.9 K, Crystal 1 | 177.1 J/K/mol
534.4 K, Crystal 1 | 177.1 J/K/mol
536.9 K, Crystal 1 | 177.1 J/K/mol
539.4 K, Crystal 1 | 177.1 J/K/mol
540 K, Crystal 1 | 177.02 J/K/mol
541.9 K, Crystal 1 | 177.1 J/K/mol
544.4 K, Crystal 1 | 177.1 J/K/mol
546.9 K, Crystal 1 | 177.1 J/K/mol
549.4 K, Crystal 1 | 177.1 J/K/mol
550 K, Crystal 1 | 177.02 J/K/mol
551.9 K, Crystal 1 | 177.1 J/K/mol
554.4 K, Crystal 1 | 177.1 J/K/mol
556.9 K, Crystal 1 | 177.1 J/K/mol
559.4 K, Crystal 1 | 177.1 J/K/mol
560 K, Crystal 1 | 177.02 J/K/mol
561.9 K, Crystal 1 | 177.1 J/K/mol
564.4 K, Crystal 1 | 177.1 J/K/mol
566.9 K, Crystal 1 | 177.1 J/K/mol
569.4 K, Crystal 1 | 177.1 J/K/mol
570 K, Crystal 1 | 177.02 J/K/mol
571.9 K, Crystal 1 | 177.1 J/K/mol
574.4 K, Crystal 1 | 177.1 J/K/mol
576.9 K, Crystal 1 | 177.1 J/K/mol
579.4 K, Crystal 1 | 177.1 J/K/mol
580 K, Crystal 1 | 177.02 J/K/mol
581.9 K, Crystal 1 | 177.1 J/K/mol
584.4 K, Crystal 1 | 177.1 J/K/mol
586.9 K, Crystal 1 | 177.1 J/K/mol
589.4 K, Crystal 1 | 177.1 J/K/mol
590 K, Crystal 1 | 177.02 J/K/mol
591.9 K, Crystal 1 | 177.1 J/K/mol
594.4 K, Crystal 1 | 177.1 J/K/mol
596.9 K, Crystal 1 | 177.1 J/K/mol
599.4 K, Crystal 1 | 177.1 J/K/mol
600 K, Crystal 1 | 177.02 J/K/mol
601.9 K, Crystal 1 | 177.1 J/K/mol
604.4 K, Crystal 1 | 177.1 J/K/mol
606.9 K, Crystal 1 | 177.1 J/K/mol
609.4 K, Crystal 1 | 177.1 J/K/mol
610 K, Crystal 1 | 177.02 J/K/mol
611.9 K, Crystal 1 | 177.93 J/K/mol
614.4 K, Crystal 1 | 177.93 J/K/mol
616.9 K, Crystal 1 | 177.93 J/K/mol
619.4 K, Crystal 1 | 177.93 J/K/mol
620 K, Crystal 1 | 177.02 J/K/mol
621.9 K, Crystal 1 | 177.93 J/K/mol
624.4 K, Crystal 1 | 177.93 J/K/mol
626.9 K, Crystal 1 | 177.93 J/K/mol
629.4 K, Crystal 1 | 177.93 J/K/mol
630 K, Crystal 1 | 177.02 J/K/mol
631.9 K, Crystal 1 | 177.93 J/K/mol
634.4 K, Crystal 1 | 177.93 J/K/mol
636.9 K, Crystal 1 | 177.93 J/K/mol
639.4 K, Crystal 1 | 177.93 J/K/mol
640 K, Crystal 1 | 177.02 J/K/mol
641.9 K, Crystal 1 | 177.93 J/K/mol
644.4 K, Crystal 1 | 177.93 J/K/mol
646.9 K, Crystal 1 | 177.93 J/K/mol
649.4 K, Crystal 1 | 177.93 J/K/mol
650 K, Crystal 1 | 177.02 J/K/mol
